From ChEMBL document CHEMBL5143629, “Synthesis and evaluation of dual fatty acid amide hydrolase-monoacylglycerol lipase inhibition and antinociceptive activities of 4-methylsulfonylaniline-derived semicarbazones” (Bioorg Med Chem, 2022)
Activity calls are given as the source filed them.

What was measured:
[1] = target: T1, Fatty-acid amide hydrolase 1 (Homo sapiens, UniProt O00519); assay: Inhibition of human recombinant FAAH using arachidonoyl as substrate preincubated for 5 mins followed by substrate addition by fluorescence based assay
T1 sequence (O00519 whole entry): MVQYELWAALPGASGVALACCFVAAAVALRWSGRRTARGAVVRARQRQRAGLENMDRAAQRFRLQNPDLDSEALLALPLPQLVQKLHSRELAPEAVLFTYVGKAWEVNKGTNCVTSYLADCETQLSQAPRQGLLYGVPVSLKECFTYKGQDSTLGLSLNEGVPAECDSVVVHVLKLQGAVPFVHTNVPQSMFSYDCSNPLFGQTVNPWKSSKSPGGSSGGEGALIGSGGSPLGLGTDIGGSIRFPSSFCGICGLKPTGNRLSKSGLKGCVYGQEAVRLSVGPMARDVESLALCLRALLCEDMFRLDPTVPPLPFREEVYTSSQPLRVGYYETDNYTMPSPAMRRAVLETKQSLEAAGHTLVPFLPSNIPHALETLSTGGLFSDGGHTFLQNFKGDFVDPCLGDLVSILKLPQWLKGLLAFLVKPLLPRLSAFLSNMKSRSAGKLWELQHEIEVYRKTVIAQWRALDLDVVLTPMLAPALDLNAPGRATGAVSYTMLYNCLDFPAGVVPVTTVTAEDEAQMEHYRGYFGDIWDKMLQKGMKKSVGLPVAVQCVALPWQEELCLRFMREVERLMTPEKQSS

[2] = target: T2, Fatty-acid amide hydrolase 1 (Homo sapiens) (UniProt O00519); assay: Reversible inhibition of FAAH (unknown origin) using arachidonoyl as substrate by jump dilution method; conditions: time <= 60.0 min
T2 sequence (whole entry): T1 sequence (O00519 whole entry)

[3] = target: T2, Fatty-acid amide hydrolase 1 (Homo sapiens); assay: Non-competitive inhibition of FAAH (unknown origin) assessed as decrease in Vmax at 10 to 40 nM using arachidonoyl as substrate by Lineweaver-Burk plot analysis; conditions: dose 10-40 nM
[4] = target: T2, Fatty-acid amide hydrolase 1 (Homo sapiens); assay: Non-competitive inhibition of FAAH (unknown origin) assessed as increase in Km at 10 to 40 nM using arachidonoyl as substrate by Lineweaver-Burk plot analysis; conditions: dose 10-40 nM
[5] = target: T1, Fatty-acid amide hydrolase 1; assay: Non-competitive inhibition of FAAH (unknown origin) using arachidonoyl as substrate by Dixon plot analysis
[6] = Permeability of the compound across blood brain barrier incubated for 18 hrs by UV plate reader based PAMPA assay; format: ADME, tissue-based; conditions: read-out: permeability
[7] = test system: SH-SY5Y; assay: Cytotoxicity against human SH-SY5Y cells assessed as cell death upto 100 uM after 24 hrs by MTT assay; format: toxicity, cell-based
[8] = test system: SH-SY5Y; assay: Neuroprotective activity against LPS-induced cell death in human SH-SY5Y cells assessed as cell viability at 100 uM after 24 hrs by MTT assay; format: functional; conditions: read-out: Activity
[9] = test system: SH-SY5Y; assay: Neuroprotective activity against LPS-induced cell death in human SH-SY5Y cells assessed as cell viability at 30 uM after 24 hrs by MTT assay; format: functional; conditions: read-out: Activity
[10] = Acute toxicity in rat assessed as body weight at 2000 mg/kg, po measured after 14 days; format: organism-based; conditions: in vivo, 336 h, time 14 day
[11] = Acute toxicity in rat assessed as reduction in food and water consumption at 2000 mg/kg, po measured after 14 days; format: organism-based; conditions: in vivo, 336 h, time 14 day
[12] = Acute toxicity in rat assessed as behavioral abnormalities at 2000 mg/kg, po measured after 14 days; format: organism-based; conditions: in vivo, 336 h, time 14 day
[13] = Acute toxicity in rat assessed as SGOT level at 2000 mg/kg, po measured after 14 days; format: organism-based; conditions: in vivo, 336 h, time 14 day
[14] = Acute toxicity in rat assessed as SGPT level at 2000 mg/kg, po measured after 14 days; format: organism-based; conditions: in vivo, 336 h, time 14 day
[15] = Acute toxicity in rat assessed as effect on total bilirubin level at 2000 mg/kg, po measured after 14 days; format: organism-based; conditions: in vivo, 336 h, time 14 day
[16] = Acute toxicity in rat assessed as serum uric acid level at 2000 mg/kg, po measured after 14 days; format: organism-based; conditions: in vivo, 336 h, time 14 day
[17] = Acute toxicity in rat assessed as serum cholestrol level at 2000 mg/kg, po measured after 14 days; format: organism-based; conditions: in vivo, 336 h, time 14 day
[18] = Acute toxicity in rat assessed as serum alkaline phosphates level at 2000 mg/kg, po measured after 14 days; format: organism-based; conditions: in vivo, 336 h, time 14 day
[19] = Acute toxicity in rat assessed as serum triglycerides level at 2000 mg/kg, po measured after 14 days; format: organism-based; conditions: in vivo, 336 h, time 14 day
[20] = Acute toxicity in rat assessed as WBC level at 2000 mg/kg, po measured after 14 days; format: organism-based; conditions: in vivo, 336 h, time 14 day
[21] = Acute toxicity in rat assessed as neutrophils level at 2000 mg/kg, po measured after 14 days; format: organism-based; conditions: in vivo, 336 h, time 14 day
[22] = Acute toxicity in rat assessed as lymphocytes level at 2000 mg/kg, po measured after 14 days; format: organism-based; conditions: in vivo, 336 h, time 14 day
[23] = Acute toxicity in rat assessed as hemoglobin level at 2000 mg/kg, po measured after 14 days; format: organism-based; conditions: in vivo, 336 h, time 14 day
[24] = Acute toxicity in rat assessed as RDW level at 2000 mg/kg, po measured after 14 days; format: organism-based; conditions: in vivo, 336 h, time 14 day
[25] = Acute toxicity in rat assessed as MPV level at 2000 mg/kg, po measured after 14 days; format: organism-based; conditions: in vivo, 336 h, time 14 day
[26] = Acute toxicity in female rat assessed as effect on liver histopathology at 2000 mg/kg, po measured after 14 days; format: organism-based; conditions: in vivo, 336 h, time 14 day
[27] = test system: Rattus norvegicus; assay: Antinociceptive activity in CCI surgery-neuropathic pain induced nerve injured rat model assessed as increase in mechanical ipsilateral paw withdrawal threshold at 5 to 20 mg/kg for 30 to 240 mins measured on day 14; format: functional, organism-based; conditions: dose 5-20 mg/kg, time 30-240 min
[28] = test system: Rattus norvegicus; assay: Antinociceptive activity in CCI surgery-neuropathic pain induced nerve injured rat model assessed tail flick latency at 5 to 20 mg/kg for 60 to 120 mins measured on day 14; format: functional, organism-based; conditions: dose 5-20 mg/kg, time 60-120 min
[29] = Effect on motor coordination in CCI surgery-neuropathic pain induced nerve injured rat model at 20 mg/kg by rotarod test; format: toxicity, organism-based; conditions: in vivo
[30] = Effect on locomotory activity in CCI surgery-neuropathic pain induced nerve injured rat model at 20 mg/kg by rotarod test; format: toxicity, organism-based; conditions: in vivo
[31] = Cmax in 12 to 16 hrs fasted Wistar rat at 20 mg/kg, po measured after 0.5 to 48 hrs by HPLC analysis; format: ADME, organism-based; design: time upper 16 hrs, dose 20 mg/kg, time lower 12 hrs, route po; conditions: in vivo
[32] = Tmax in 12 to 16 hrs fasted Wistar rat at 20 mg/kg, po measured after 0.5 to 48 hrs by HPLC analysis; format: ADME, organism-based; conditions: in vivo, time 12-16 hrs
[33] = AUC(0 to t) in 12 to 16 hrs fasted Wistar rat at 20 mg/kg, po measured after 0.5 to 48 hrs by HPLC analysis; format: ADME, organism-based; design: time upper 16 hrs, dose 20 mg/kg, time lower 12 hrs, route po; conditions: in vivo
[34] = Half life in 12 to 16 hrs fasted Wistar rat at 20 mg/kg, po measured after 0.5 to 48 hrs by HPLC analysis; format: ADME, organism-based; conditions: in vivo, time 12-16 hrs
[35] = MRT (0 to infinity) in 12 to 16 hrs fasted Wistar rat at 20 mg/kg, po measured after 0.5 to 48 hrs by HPLC analysis; format: ADME, organism-based; conditions: in vivo, time 12-16 hrs
[36] = Aqueous solubility of compound in PBS at pH 7.4 measured for 20 hrs by HPLC-UV analysis; format: physicochemical
[37] = test system: Rattus norvegicus; assay: Ex vivo inhibition in rat brain assessed as reduction in FAAH level at 10 to 20 mg/kg, ip incubated for 20 mins in presence of AMC by fluorescence based multimode reader analysis; format: functional, organism-based; conditions: dose 10-20 mg/kg
[38] = target: T3, Monoglyceride lipase (Rattus norvegicus) (UniProt Q8R431); assay: Ex vivo inhibition in rat brain assessed as reduction in MAGL level at 10 to 20 mg/kg, ip incubated for 20 mins in presence of NPA by fluorescence based multimode reader analysis; format: functional, organism-based; conditions: dose 10-20 mg/kg
T3 sequence (whole entry): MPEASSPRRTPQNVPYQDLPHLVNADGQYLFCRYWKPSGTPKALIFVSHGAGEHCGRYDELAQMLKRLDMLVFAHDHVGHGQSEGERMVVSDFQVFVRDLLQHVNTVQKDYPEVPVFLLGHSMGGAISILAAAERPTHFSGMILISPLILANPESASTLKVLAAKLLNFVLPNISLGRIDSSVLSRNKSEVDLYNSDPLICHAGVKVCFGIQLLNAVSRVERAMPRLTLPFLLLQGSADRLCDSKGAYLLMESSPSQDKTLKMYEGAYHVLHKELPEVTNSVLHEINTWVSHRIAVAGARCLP

## CS(=O)(=O)c1ccc(NC(=O)N/N=C\c2c(Cl)cccc2Cl)cc1
[1]
  IC50: 0.011 µM
[2]
  inhibition: Active
[3]
  inhibition: Active
[4]
  inhibition: Active
[5]
  Ki: 0.028 µM
[6]
  Papp at 18 h: 102 nm/s
[7]
  Activity: Non-Toxic
[8]
  viability at 100 µM: 80%
[9]
  viability at 30 µM: 70%
[10]
  Activity: Non-Toxic
[11]
  Activity: Non-Toxic
[12]
  Activity: Non-Toxic
[13]
  Activity: Non-Toxic
[14]
  Activity: Non-Toxic
[15]
  Activity: Non-Toxic
[16]
  Activity: Non-Toxic
[17]
  Activity: Non-Toxic
[18]
  Activity: Non-Toxic
[19]
  Activity: Non-Toxic
[20]
  Activity: Non-Toxic
[21]
  Activity: Non-Toxic
[22]
  Activity: Non-Toxic
[23]
  Activity: Non-Toxic
[24]
  Activity: Non-Toxic
[25]
  Activity: Non-Toxic
[26]
  Activity: Non-Toxic
[27]
  Activity: Active
[28]
  Activity: Active
[29]
  Activity: Non-Toxic
[30]
  Activity: Non-Toxic
[31]
  Cmax: 22 µg/mL
[32]
  Tmax: 30 min
[33]
  AUC(0-t): 8.92 µg·h/mL
[34]
  half-life: 34.8 min
[35]
  MRT inf: 30 min
[36]
  solubility at 20 h: < 1 µg/mL
[37]
  Activity: Active
[38]
  Activity: Active
